Like-named read-outs stand apart in the source and are kept apart here.
Assays:
Assay type in all cases: biochemical
[1] = target: T1, Recombinant human MMP-1 enzyme (Homo sapiens, UniProt P03956); experiment: In vitro inhibition of MMP-1 activity; details: for in vitro MMP-1 inhibition activity, in words: summary of Tables 2 and 4
T1 construct: purchased
T1 sequence (P03956 100-469): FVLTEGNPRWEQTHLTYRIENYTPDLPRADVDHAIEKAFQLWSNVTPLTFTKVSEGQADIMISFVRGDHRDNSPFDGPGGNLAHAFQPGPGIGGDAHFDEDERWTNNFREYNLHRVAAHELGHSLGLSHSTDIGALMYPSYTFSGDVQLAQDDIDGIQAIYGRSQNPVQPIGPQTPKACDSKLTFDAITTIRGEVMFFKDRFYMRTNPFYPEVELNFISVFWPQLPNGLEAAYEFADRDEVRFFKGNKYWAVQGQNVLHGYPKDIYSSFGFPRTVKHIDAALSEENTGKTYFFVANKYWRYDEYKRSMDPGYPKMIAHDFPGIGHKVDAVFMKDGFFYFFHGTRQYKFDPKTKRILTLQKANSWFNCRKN
From the text: In vitro specific inhibition of MMP-2 and MMP-9 activity was estimated with assay kits from Biomol®. Recombinant human MMP-1 enzyme may be obtained from any commercially available source. […] Therefore, a lower value indicates a stronger MMP inhibition.
In vitro specific inhibition of MMP-2 and MMP-9 activity is estimated with assay kits from Biomol®. Recombinant human MMP-1 enzyme is obtained from any commercially available source.

[2] = target: T2, MMP-2 (Homo sapiens, UniProt P08253); experiment: In vitro specific inhibition of MMP-2 activity (Biomol assay kit); details: for IC50: selected standards, Table 4, read-out: inhibition expressed as IC50 against MMP-2 (converted); for in vitro MMP-2 inhibition activity, in words: summary of Tables 2 and 4
T2 construct: purchased Biomol
T2 sequence (P08253 110-446 limits assumed): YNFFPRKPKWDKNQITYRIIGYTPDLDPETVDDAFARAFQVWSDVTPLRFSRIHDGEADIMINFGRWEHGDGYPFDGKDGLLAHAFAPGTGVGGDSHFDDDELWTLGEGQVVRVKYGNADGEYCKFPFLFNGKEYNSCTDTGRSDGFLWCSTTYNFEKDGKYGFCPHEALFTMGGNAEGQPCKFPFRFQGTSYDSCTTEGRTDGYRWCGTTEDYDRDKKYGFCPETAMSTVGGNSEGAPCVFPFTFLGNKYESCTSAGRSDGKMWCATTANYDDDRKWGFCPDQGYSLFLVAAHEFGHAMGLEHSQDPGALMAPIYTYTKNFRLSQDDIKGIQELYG
Experimental: (§1) Several extracts and sub-fractions from the leaves of Menyanthes trifoliata were prepared by liquid-liquid partitioning and fractionation on a Sephadex LH20 gel filtration column (see example 1) and evaluated for specific anti-MMP activity. In vitro specific inhibition of MMP-2 and MMP-9 activity was estimated with assay kits from Biomol®. Recombinant human MMP-1 enzyme may be obtained from any commercially available source. […] Therefore, a lower value indicates a stronger MMP inhibition.
(§2) To further understand which agents may be contributing to the MMP-1, 2, 9 inhibition activity, standards of the different phenol acids, flavonoids and coumarins, identified in Menyanthes trifoliata extracts, were tested for their in vitro inhibition of MMPs-1, 2 and 9. In vitro specific inhibition of MMP-2 and MMP-9 activity is estimated with assay kits from Biomol®. Recombinant human MMP-1 enzyme is obtained from any commercially available source.

[3] = target: T3, MMP-9 (Homo sapiens, UniProt P14780); experiment: In vitro specific inhibition of MMP-9 activity (Biomol assay kit); details: for IC50: selected standards, Table 4, read-out: inhibition expressed as IC50 against MMP-9 (converted); for in vitro MMP-9 inhibition activity, in words: summary of Tables 2 and 4
T3 construct: purchased Biomol
T3 sequence (P14780 107-444 limits assumed): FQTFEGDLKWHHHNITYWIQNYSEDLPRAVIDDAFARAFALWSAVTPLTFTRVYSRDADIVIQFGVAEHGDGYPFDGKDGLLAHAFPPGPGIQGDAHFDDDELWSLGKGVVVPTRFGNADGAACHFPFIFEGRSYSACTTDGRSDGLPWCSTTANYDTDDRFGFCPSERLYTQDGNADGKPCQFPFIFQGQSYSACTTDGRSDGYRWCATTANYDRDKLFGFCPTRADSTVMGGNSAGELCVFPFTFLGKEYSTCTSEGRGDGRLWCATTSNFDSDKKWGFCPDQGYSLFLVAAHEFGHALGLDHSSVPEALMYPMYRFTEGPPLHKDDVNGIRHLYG
Experimental: as §1, §2

[4] = Peroxynitrite scavenging (ABEL peroxynitrite antioxidant test kit with Pholasin); details: summary of Table 6
Experimental: Assay was performed with the ABEL® peroxynitrite antioxidant test kit with Pholasin®. Standards of different phenolic acids and flavonoids, identified in […] trifoliata extracts, were tested for their in vitro peroxynitrite scavenging activity. Assay was performed with the ABEL® peroxynitrite antioxidant test kit with Pholasin®.

[5] = selected standards, Table 4, read-out: inhibition expressed as IC50 against MMP-1 (converted)

Row | SMILES | in vitro MMP-1 inhibition activity, in words [1] | in vitro MMP-2 inhibition activity, in words [2] | in vitro MMP-9 inhibition activity, in words [3] | IC50 [1, 5] [µM] | IC50 [1] [µM] | IC50 [2] [µM] | IC50 [3] [µM] | peroxynitrite scavenging activity, in words [4]
1 | O=c1c(O[C@@H]2O[C@H](CO)[C@@H](O)[C@H](O)[C@H]2O)c(-c2ccc(O)c(O)c2)oc2cc(O)cc(O)c12 [Iso-quercitrin] | – | – | – | – | 49.5 | 21.5 | 198 | –
2 | O=C(O)c1ccc(O)c(O)c1 [Protocatechuic acid] | – | – | – | – | – | – | – | strong
3 | O=c1c(O)c(-c2ccc(O)c(O)c2)oc2cc(O)cc(O)c12 [Quercetin] | strong | strong | strong | – | – | 33.1 | 62.9 | strong
4 | C[C@@H]1O[C@@H](OC[C@H]2O[C@@H](Oc3c(-c4ccc(O)c(O)c4)oc4cc(O)cc(O)c4c3=O)[C@H](O)[C@@H](O)[C@@H]2O)[C@H](O)[C@H](O)[C@H]1O [Rutin] | – | – | – | 65.5 | – | 45.9 | 70.4 | –
5 | COc1cc2ccc(=O)oc2cc1O [Scopoletin] | strong | strong | strong | 78.1 | – | 93.7 | 130 | –
6 | O=C(O)c1ccc(O)cc1 [p-hydroxy-benzoic acid] | not | – | not | – | – | – | – | –

Now from value to compound, other results behind:

Row | in vitro MMP-1 inhibition activity, in words [1] | in vitro MMP-2 inhibition activity, in words [2] | in vitro MMP-9 inhibition activity, in words [3] | IC50 [1, 5] [µM] | SMILES | IC50 [1] [µM] | IC50 [2] [µM] | IC50 [3] [µM] | peroxynitrite scavenging activity, in words [4]
7 | strong | strong | strong | 72.7 | COc1cc2ccc(=O)oc2cc1OC [Scoparone] | – | 87.3 | 48.5 | –
8 | strong | strong | strong | 144 | COc1cc(/C=C/C(=O)O)ccc1O [ferulic acid] | – | 113 | 103 | strong

Source: US20110033397A1, “Anti-Aging Compositions Comprising Menyanthes Trifoliata Leaf Extracts And Methods Of Use Thereof” (priority 2006, published 2011)
